Experimental data reported in patent US20140349948A1, “Treatment of Chronic Constipation” (Forest Laboratories Holdings Limited, priority 2009, published 2014).
Residues, ends and D or L forms follow the SMILES beside them.

System: patients with chronic constipation
Test: Trial 2 four-week Randomized Withdrawal Period
Assay type: in vivo, human
Design: Straining, Change From Baseline, Mean / Abdominal Discomfort, Change From Baseline, Mean / Bloating, Change From Baseline, Mean / Constipation Severity, Change From Baseline, Mean / Global Relief of Constipation Symptoms, Change From Baseline, Mean: scale not given here
Settings: for Abdominal Discomfort, Change From Baseline, Mean / Bloating, Change From Baseline, Mean / Constipation Severity, Change From Baseline, Mean / Global Relief of Constipation Symptoms, Change From Baseline, Mean / Stool Consistency (BSFS), Change From Baseline, Mean / Straining, Change From Baseline, Mean / Weekly CSBM Rate, Change From Baseline, Mean / Weekly SBM Rate, Change From Baseline, Mean: RW Period
Method: Trial 2 was conducted in 642 patients and was identical to Trial 1 except that Trial 2 also included a four-week Randomized Withdrawal Period, defined below. During the two-week pretreatment (baseline) period, 68 percent of patients in Trial 2 had no CSBMs.
The Randomized Withdrawal (RW) Period is defined as the 4 weeks immediately following the Treatment Period. The beginning of the RW Period coincides with the end of the Treatment Period. Patients who were randomized to linaclotide in the Treatment Period and complete the 12 weeks of the Treatment Period were randomized to treatment with linaclotide or placebo in the RW Period. Patients who were randomized to placebo in the Treatment Period and complete the 12 weeks of the Treatment Period received 133 μg or 266 μg linaclotide in the RW Period.

C[C@@H]1NC(=O)[C@@H]2CCCN2C(=O)[C@H](CC(N)=O)NC(=O)[C@@H]2CSSC[C@H](N)C(=O)N[C@H]3CSSC[C@H](NC1=O)C(=O)N[C@@H]([C@@H](C)O)C(=O)NCC(=O)N[C@H](C(=O)N[C@@H](Cc1ccc(O)cc1)C(=O)O)CSSC[C@H](NC(=O)[C@H](Cc1ccc(O)cc1)NC(=O)[C@H](CCC(=O)O)NC3=O)C(=O)N2 [Linaclotide, Cys1 Cys2 Glu3 Tyr4 Cys5 Cys6 Asn7 Pro8 Ala9 Cys10 Thr11 Gly12 Cys13 Tyr14] (HELM PEPTIDE1{C.C.E.Y.C.C.N.P.A.C.T.G.C.Y}$PEPTIDE1,PEPTIDE1,1:R3-6:R3|PEPTIDE1,PEPTIDE1,2:R3-10:R3|PEPTIDE1,PEPTIDE1,5:R3-13:R3$$$V2.0)
Abdominal Discomfort, Change From Baseline, Mean (133 μg/133 μg (n = 90)): −0.5 | Bloating, Change From Baseline, Mean (133 μg/133 μg (n = 90)): −0.4 | Constipation Severity, Change From Baseline, Mean (133 μg/133 μg (n = 90)): −0.9 | Global Relief of Constipation Symptoms, Change From Baseline, Mean (133 μg/133 μg (n = 90)): −1.3 | Stool Consistency (BSFS), Change From Baseline, Mean (133 μg/133 μg (n = 90)): 1.9 | Straining, Change From Baseline, Mean (133 μg/133 μg (n = 90)): −1.1 | Weekly CSBM Rate, Change From Baseline, Mean (133 μg/133 μg (n = 90)): 2.1 | Weekly SBM Rate, Change From Baseline, Mean (133 μg/133 μg (n = 90)): 3.0 | Abdominal Discomfort, Change From Baseline, Mean (133 μg/Placebo (n = 95)): −0.4 | Bloating, Change From Baseline, Mean (133 μg/Placebo (n = 95)): −0.4 | Constipation Severity, Change From Baseline, Mean (133 μg/Placebo (n = 95)): −0.5 | Global Relief of Constipation Symptoms, Change From Baseline, Mean (133 μg/Placebo (n = 95)): −0.7 | Stool Consistency (BSFS), Change From Baseline, Mean (133 μg/Placebo (n = 95)): 1.0 | Straining, Change From Baseline, Mean (133 μg/Placebo (n = 95)): −0.8 | Weekly CSBM Rate, Change From Baseline, Mean (133 μg/Placebo (n = 95)): 1.0 | Weekly SBM Rate, Change From Baseline, Mean (133 μg/Placebo (n = 95)): 1.2 | Abdominal Discomfort, Change From Baseline, Mean (266 μg/266 μg (n = 90)): −0.7 | Bloating, Change From Baseline, Mean (266 μg/266 μg (n = 90)): −0.6 | Constipation Severity, Change From Baseline, Mean (266 μg/266 μg (n = 90)): −0.9 | Global Relief of Constipation Symptoms, Change From Baseline, Mean (266 μg/266 μg (n = 90)): −1.3 | Stool Consistency (BSFS), Change From Baseline, Mean (266 μg/266 μg (n = 90)): 1.6 | Straining, Change From Baseline, Mean (266 μg/266 μg (n = 90)): −1.3 | Weekly CSBM Rate, Change From Baseline, Mean (266 μg/266 μg (n = 90)): 2.2 | Weekly SBM Rate, Change From Baseline, Mean (266 μg/266 μg (n = 90)): 2.5 | Abdominal Discomfort, Change From Baseline, Mean (266 μg/Placebo (n = 86)): −0.4 | Bloating, Change From Baseline, Mean (266 μg/Placebo (n = 86)): −0.2 | Constipation Severity, Change From Baseline, Mean (266 μg/Placebo (n = 86)): −0.5 | Global Relief of Constipation Symptoms, Change From Baseline, Mean (266 μg/Placebo (n = 86)): −0.8 | Stool Consistency (BSFS), Change From Baseline, Mean (266 μg/Placebo (n = 86)): 0.8 | Straining, Change From Baseline, Mean (266 μg/Placebo (n = 86)): −0.8 | Weekly CSBM Rate, Change From Baseline, Mean (266 μg/Placebo (n = 86)): 0.9 | Weekly SBM Rate, Change From Baseline, Mean (266 μg/Placebo (n = 86)): 1.3 | Abdominal Discomfort, Change From Baseline, Mean (Placebo/266 μg (n = 177)): −0.5 | Bloating, Change From Baseline, Mean (Placebo/266 μg (n = 177)): −0.5 | Constipation Severity, Change From Baseline, Mean (Placebo/266 μg (n = 177)): −1.0 | Global Relief of Constipation Symptoms, Change From Baseline, Mean (Placebo/266 μg (n = 177)): −1.3 | Stool Consistency (BSFS), Change From Baseline, Mean (Placebo/266 μg (n = 177)): 1.9 | Straining, Change From Baseline, Mean (Placebo/266 μg (n = 177)): −1.2 | Weekly CSBM Rate, Change From Baseline, Mean (Placebo/266 μg (n = 177)): 2.1 | Weekly SBM Rate, Change From Baseline, Mean (Placebo/266 μg (n = 177)): 3.7 | bowel and abdominal symptoms and global assessments in patients continuing treatment (Randomized Withdrawal Period): sustained improvements | frequencies of adverse events following discontinuing of treatment (Randomized Withdrawal Period): no evidence of rebound of CC symptoms or increase in the frequencies of adverse events | rebound of CC symptoms following discontinuing of treatment (Randomized Withdrawal Period): no evidence of rebound of CC symptoms | CC symptoms in patients initiating linaclotide treatment (Randomized Withdrawal Period, placebo then linaclotide): marked improvement | incidence of adverse events in patients initiating linaclotide treatment (Randomized Withdrawal Period, versus those receiving linaclotide during first 4 weeks of Treatment Period): similar | CSBM and SBM rates versus baseline rates after withdrawal (linaclotide for 12 weeks, re-randomized to placebo during 4 week withdrawal period): no decreases in CSBM (FIG. 2) or SBM rates (FIG. 3) below the baseline rates
